ChEMBL document CHEMBL5260810, “Inhibition of bromodomain-containing protein 9 for the prevention of epigenetically-defined drug resistance” (Bioorg Med Chem Lett, 2017)

Experiments:
[1] = Cytotoxicity against human OV7 cells measured after 8 days; format: functional, cell-based; details: OV7, 192 h
[2] = tested on: IGROV-1; test: Cytotoxicity against human IGROV-1 cells measured after 8 days; format: functional, cell-based; details: IGROV-1, 192 h
[3] = tested on: RERF-LC-MS; test: Cytotoxicity against human RERF-LC-MS cells measured after 8 days; format: functional, cell-based; details: 192 h
[4] = Cytotoxicity against human HMY-1 cells measured after 8 days; format: functional, cell-based; details: HMY-1, 192 h
[5] = Cytotoxicity against human 501A cells measured after 8 days; format: functional, cell-based; details: 192 h
[6] = Cytotoxicity against human Ci-1 cells measured after 8 days; format: functional, cell-based; details: Ci-1, 192 h
[7] = tested on: HCC4017; test: Cytotoxicity against human HCC4017 cells measured after 8 days; format: functional, cell-based; details: HCC4017, 192 h
[8] = Cytotoxicity against human KMS-21BM cells measured after 8 days; format: functional, cell-based; details: 192 h
[9] = tested on: YMB-1-E; test: Cytotoxicity against human YMB-1-E cells measured after 8 days; format: functional, cell-based; details: 192 h
[10] = tested on: BJAB; test: Cytotoxicity against human BJAB cells measured after 8 days; format: functional, cell-based; details: 192 h
[11] = tested on: HEL; test: Cytotoxicity against human HEL cells measured after 8 days; format: functional, cell-based; details: 192 h
[12] = molecular target: Histone acetyltransferase KAT2A (Homo sapiens, UniProt Q92830); test: Binding affinity to human partial length GCN5L2 (E726 to K837 residues) expressed in bacterial expression system by BROMOscan assay
[13] = tested on: CW-2; test: Cytotoxicity against human CW-2 cells measured after 8 days; format: functional, cell-based; details: CW-2, 192 h
[14] = tested on: NCI-H2452; test: Cytotoxicity against human NCI-H2452 cells measured after 8 days; format: functional, cell-based; details: NCI-H2452, 192 h
[15] = Cytotoxicity against human HCC4019 cells measured after 8 days; format: functional, cell-based; details: HCC4019, 192 h
[16] = molecular target: Bromodomain-containing protein 8 (Homo sapiens, UniProt Q9H0E9); test: Binding affinity to BRD8 bromodomain 1 (unknown origin) by BROMOscan assay
[17] = molecular target: T1, Peregrin (Homo sapiens, UniProt P55201); test: Binding affinity to human partial length BRPF1 (E627 to G740 residues) expressed in bacterial expression system by BROMOscan assay
T1 sequence (P55201 whole entry): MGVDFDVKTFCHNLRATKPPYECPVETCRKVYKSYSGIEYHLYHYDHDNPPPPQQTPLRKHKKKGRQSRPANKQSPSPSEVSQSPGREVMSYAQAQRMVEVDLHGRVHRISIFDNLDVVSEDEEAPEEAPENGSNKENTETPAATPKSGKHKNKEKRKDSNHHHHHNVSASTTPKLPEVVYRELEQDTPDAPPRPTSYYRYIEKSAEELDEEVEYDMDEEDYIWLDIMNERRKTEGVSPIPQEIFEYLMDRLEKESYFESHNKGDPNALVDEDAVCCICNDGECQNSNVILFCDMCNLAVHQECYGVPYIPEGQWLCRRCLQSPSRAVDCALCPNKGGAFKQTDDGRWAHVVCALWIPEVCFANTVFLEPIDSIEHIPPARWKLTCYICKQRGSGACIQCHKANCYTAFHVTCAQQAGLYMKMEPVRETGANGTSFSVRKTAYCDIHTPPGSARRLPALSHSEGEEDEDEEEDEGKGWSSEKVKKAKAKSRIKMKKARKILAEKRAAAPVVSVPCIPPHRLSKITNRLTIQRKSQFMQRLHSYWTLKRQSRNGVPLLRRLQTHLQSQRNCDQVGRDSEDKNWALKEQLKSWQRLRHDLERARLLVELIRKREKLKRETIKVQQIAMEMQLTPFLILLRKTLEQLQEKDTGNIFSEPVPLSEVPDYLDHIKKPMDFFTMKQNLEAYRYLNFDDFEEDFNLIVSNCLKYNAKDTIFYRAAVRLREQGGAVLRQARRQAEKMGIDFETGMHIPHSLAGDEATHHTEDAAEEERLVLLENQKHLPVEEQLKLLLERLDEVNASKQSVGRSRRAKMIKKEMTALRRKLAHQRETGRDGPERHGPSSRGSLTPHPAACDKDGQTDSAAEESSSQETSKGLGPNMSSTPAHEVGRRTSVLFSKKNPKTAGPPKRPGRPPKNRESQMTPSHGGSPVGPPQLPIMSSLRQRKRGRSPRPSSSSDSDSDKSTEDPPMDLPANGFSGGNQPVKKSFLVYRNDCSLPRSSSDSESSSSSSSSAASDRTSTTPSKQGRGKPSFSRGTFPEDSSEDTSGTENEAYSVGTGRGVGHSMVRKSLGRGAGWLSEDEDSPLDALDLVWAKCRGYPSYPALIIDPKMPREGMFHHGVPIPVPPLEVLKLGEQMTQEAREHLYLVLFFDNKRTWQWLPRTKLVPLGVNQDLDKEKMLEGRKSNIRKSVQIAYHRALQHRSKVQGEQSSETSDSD

[18] = molecular target: SWI/SNF-related matrix-associated actin-dependent regulator of chromatin subfamily A member 2 (Homo sapiens, UniProt P51531); test: Binding affinity to human partial length SMARCA2 (S1377 to Q1486 residues) expressed in bacterial expression system by BROMOscan assay
[19] = tested on: AU565; test: Cytotoxicity against human AU565 cells measured after 8 days; format: functional, cell-based; details: AU565, 192 h
[20] = tested on: PC-3; test: Cytotoxicity against human PC-3 cells measured after 8 days; format: functional, cell-based; details: PC-3, 192 h
[21] = tested on: SUD4; test: Cytotoxicity against human SU-DHL-4 cells measured after 8 days; format: functional, cell-based; details: SU-DHL-4, 192 h
[22] = tested on: ChaGo-K-1; test: Cytotoxicity against human ChaGo-K-1 cells measured after 8 days; format: functional, cell-based; details: ChaGo-K-1, 192 h
[23] = molecular target: T2, Muscarinic acetylcholine receptor M1 (Homo sapiens) (UniProt P11229); test: Displacement of [125I]pirenzepine from human recombinant M1 receptor at 10 uM after 60 mins by scintillation counting analysis relative to control
T2 sequence (whole entry): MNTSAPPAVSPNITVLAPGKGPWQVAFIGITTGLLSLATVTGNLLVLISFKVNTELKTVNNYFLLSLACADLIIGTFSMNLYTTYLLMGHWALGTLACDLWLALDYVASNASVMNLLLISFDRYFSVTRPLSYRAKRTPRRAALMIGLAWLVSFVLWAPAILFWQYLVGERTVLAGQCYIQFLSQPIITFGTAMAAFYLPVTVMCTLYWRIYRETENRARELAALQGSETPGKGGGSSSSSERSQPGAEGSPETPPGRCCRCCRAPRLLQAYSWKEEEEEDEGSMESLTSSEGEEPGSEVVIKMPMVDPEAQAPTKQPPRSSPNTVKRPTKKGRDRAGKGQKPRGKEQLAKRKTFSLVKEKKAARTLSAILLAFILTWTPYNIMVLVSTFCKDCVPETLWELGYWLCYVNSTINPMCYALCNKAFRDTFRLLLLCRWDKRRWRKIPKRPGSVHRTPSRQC

[24] = tested on: MDA-MB-231; test: Cytotoxicity against human MDA-MB-231 cells measured after 8 days; format: functional, cell-based; details: MDA-MB-231, 192 h

SWI/SNF-related matrix-associated actin-dependent regulator of chromatin subfamily A member 2, sequence (P51531 whole entry, the tested form may be a part): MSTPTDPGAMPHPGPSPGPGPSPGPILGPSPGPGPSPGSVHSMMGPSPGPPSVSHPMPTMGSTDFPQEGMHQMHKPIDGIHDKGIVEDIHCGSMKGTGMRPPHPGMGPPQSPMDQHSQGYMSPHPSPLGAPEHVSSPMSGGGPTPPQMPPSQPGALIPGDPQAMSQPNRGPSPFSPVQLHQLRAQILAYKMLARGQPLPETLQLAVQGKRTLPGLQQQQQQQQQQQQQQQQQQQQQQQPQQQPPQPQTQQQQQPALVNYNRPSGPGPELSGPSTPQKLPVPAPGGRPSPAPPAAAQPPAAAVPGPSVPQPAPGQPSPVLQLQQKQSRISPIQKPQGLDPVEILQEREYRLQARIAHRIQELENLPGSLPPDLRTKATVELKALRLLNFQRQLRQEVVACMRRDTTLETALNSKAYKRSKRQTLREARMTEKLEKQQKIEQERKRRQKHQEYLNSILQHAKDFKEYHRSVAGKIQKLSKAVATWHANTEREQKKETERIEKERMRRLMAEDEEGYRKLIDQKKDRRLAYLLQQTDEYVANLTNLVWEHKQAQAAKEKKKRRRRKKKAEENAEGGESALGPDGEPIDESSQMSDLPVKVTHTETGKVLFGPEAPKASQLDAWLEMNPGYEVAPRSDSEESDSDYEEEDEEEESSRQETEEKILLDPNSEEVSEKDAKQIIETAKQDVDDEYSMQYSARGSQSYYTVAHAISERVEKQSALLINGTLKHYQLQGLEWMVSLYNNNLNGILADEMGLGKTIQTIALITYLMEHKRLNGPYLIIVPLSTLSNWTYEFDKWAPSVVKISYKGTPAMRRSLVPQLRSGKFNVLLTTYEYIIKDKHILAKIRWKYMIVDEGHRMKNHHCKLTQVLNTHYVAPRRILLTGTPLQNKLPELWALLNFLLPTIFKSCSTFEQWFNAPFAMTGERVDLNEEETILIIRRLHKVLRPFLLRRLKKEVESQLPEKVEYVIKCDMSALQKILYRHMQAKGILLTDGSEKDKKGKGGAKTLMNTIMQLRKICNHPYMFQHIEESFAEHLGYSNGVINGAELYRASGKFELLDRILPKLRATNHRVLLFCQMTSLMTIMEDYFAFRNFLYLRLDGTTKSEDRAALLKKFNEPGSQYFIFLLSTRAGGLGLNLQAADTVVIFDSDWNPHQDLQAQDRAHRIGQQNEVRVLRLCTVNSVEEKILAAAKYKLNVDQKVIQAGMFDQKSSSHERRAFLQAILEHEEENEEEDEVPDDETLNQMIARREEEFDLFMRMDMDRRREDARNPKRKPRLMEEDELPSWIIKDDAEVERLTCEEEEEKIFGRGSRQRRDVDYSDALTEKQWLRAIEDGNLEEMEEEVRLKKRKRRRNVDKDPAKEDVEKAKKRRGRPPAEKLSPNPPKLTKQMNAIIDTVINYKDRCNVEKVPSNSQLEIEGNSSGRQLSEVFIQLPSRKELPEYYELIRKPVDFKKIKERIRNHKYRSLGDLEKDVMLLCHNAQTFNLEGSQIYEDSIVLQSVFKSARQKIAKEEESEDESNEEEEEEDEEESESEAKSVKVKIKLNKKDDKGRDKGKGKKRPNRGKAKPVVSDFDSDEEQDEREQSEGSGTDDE
Histone acetyltransferase KAT2A, sequence (Q92830 whole entry, the tested form may be a part): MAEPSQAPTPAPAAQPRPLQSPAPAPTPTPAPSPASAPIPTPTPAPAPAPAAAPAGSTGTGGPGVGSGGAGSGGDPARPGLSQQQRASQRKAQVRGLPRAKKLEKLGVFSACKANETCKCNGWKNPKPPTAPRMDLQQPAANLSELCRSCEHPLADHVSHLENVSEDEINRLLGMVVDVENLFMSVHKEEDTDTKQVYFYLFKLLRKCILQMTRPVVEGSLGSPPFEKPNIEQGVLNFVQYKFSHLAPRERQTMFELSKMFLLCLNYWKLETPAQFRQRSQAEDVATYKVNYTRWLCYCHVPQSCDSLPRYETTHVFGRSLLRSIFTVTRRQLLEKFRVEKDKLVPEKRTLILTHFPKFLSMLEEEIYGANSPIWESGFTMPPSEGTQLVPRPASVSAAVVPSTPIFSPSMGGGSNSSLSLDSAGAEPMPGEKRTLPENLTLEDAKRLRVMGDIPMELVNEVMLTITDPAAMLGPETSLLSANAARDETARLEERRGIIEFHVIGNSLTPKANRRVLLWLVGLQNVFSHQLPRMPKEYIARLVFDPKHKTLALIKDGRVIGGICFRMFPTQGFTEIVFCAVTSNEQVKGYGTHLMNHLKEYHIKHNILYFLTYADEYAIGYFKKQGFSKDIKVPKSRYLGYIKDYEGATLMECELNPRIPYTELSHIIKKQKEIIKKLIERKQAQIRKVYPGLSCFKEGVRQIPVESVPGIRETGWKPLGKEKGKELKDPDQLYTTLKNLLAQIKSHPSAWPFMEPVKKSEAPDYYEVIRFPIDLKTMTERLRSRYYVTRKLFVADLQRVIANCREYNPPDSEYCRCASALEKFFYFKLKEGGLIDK
Bromodomain-containing protein 8, sequence (Q9H0E9 whole entry, the tested form may be a part): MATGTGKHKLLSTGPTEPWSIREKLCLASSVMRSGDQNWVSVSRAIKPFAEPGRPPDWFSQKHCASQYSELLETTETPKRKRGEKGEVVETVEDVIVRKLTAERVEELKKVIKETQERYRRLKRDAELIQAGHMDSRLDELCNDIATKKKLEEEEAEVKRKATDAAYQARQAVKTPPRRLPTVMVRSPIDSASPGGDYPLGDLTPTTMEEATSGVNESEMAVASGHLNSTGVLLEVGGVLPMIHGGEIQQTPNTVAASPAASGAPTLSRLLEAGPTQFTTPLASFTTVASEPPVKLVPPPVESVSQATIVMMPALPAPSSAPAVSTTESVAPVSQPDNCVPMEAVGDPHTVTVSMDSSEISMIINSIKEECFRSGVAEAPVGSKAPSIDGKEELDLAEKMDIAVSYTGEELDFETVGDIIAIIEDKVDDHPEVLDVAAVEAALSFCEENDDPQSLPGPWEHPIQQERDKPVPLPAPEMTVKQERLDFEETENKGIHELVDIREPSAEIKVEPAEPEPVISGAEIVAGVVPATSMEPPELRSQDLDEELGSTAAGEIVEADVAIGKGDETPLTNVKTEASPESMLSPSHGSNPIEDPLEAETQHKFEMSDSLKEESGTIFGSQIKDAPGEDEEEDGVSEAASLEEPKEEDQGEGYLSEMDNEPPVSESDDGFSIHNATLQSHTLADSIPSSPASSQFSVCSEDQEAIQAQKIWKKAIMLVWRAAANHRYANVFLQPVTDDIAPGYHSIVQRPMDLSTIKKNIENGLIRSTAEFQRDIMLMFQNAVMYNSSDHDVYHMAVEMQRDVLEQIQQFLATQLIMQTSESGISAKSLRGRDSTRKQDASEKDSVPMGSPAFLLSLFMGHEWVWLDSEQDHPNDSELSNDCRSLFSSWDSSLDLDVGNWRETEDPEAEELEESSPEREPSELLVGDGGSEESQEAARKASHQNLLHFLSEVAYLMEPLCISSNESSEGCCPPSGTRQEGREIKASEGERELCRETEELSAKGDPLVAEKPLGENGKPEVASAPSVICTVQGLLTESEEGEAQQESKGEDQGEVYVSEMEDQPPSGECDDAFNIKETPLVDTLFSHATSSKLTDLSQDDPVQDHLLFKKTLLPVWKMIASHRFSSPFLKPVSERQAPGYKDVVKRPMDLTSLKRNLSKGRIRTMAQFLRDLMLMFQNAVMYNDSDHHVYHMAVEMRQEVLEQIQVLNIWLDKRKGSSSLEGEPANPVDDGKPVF

## C/C=C/Cn1cc(-c2ccc(C(=O)N3CCOCC3)cc2)c2cc[nH]c2c1=O
[1]
  IC50: 20 µM
[2]
  IC50: 20 µM
[3]
  IC50: 20 µM
[4]
  IC50: 20 µM
[5]
  IC50: 20 µM
[6]
  IC50: 20 µM
[7]
  IC50: 20 µM
[8]
  IC50: 14.8 µM
[9]
  IC50: 20 µM
[10]
  IC50: 16.5 µM
[11]
  IC50: 18 µM
[12]
  Kd: > 10 µM
[13]
  IC50: 20 µM
[14]
  IC50: 20 µM
[15]
  IC50: 20 µM
[16]
  Kd: > 10 µM
[17]
  Kd: > 10 µM
[18]
  Kd: > 10 µM
[19]
  IC50: 20 µM
[20]
  IC50: 20 µM
[21]
  IC50: 20 µM
[22]
  IC50: 20 µM
[23]
  Activity: -8%
[24]
  IC50: 20 µM

## C/C=C/Cn1cc(-c2ccc(C(C)(C)O)cc2OC)c2cc[nH]c2c1=O
[1]
  IC50: 20 µM
[2]
  IC50: 20 µM
[3]
  IC50: 20 µM
[4]
  IC50: 20 µM
[5]
  IC50: 20 µM
[6]
  IC50: 15 µM
[7]
  IC50: 20 µM
[8]
  IC50: 20 µM
[9]
  IC50: 20 µM
[10]
  IC50: 20 µM
[11]
  IC50: 14.8 µM
[12]
  Kd: 0.41 µM
[13]
  IC50: 20 µM
[14]
  IC50: 20 µM
[15]
  IC50: 20 µM
[16]
  Kd: > 10 µM
[17]
  Kd: > 10 µM
[18]
  Kd: > 10 µM
[19]
  IC50: 20 µM
[20]
  IC50: 20 µM
[21]
  IC50: 8.59 µM
[22]
  IC50: 20 µM
[23]
  Activity: 1%
[24]
  IC50: 20 µM

## C/C=C/Cn1cc(-c2cc(OC)c(C(=O)N3CCOCC3)cc2OC)c2cc(C)[nH]c2c1=O
[1]
  IC50: 2 µM
[2]
  IC50: 2 µM
[3]
  IC50: 2 µM
[4]
  IC50: 2 µM
[5]
  IC50: 2 µM
[6]
  IC50: 2 µM
[7]
  IC50: 2 µM
[8]
  IC50: 2 µM
[9]
  IC50: 2 µM
[10]
  IC50: 2 µM
[11]
  IC50: 2 µM
[12]
  Kd: > 10 µM
[13]
  IC50: 2 µM
[14]
  IC50: 2 µM
[15]
  IC50: 2 µM
[16]
  Kd: > 10 µM
[17]
  Kd: > 10 µM
[18]
  Kd: > 10 µM
[19]
  IC50: 2 µM
[20]
  IC50: 2 µM
[21]
  IC50: 2 µM
[22]
  IC50: 2 µM
[23]
  Activity: -1%
[24]
  IC50: 2 µM

## C/C=C/Cn1cc(-c2cc(OC)c(C(C)(C)O)cc2OC)c2cc(C)[nH]c2c1=O
[12]
  Kd: 0.16 µM
[16]
  Kd: > 10 µM
[17]
  Kd: > 10 µM
[18]
  Kd: > 10 µM
